Laboratory results: patent US10385050B2, “Indolin-2-one and 1,3-dihydro-pyrrolo[3,2-c]pyridin-2-one derivatives” (Hoffmann-La Roche Inc., priority 2014, dated 2019)
Counter-ions that a name gives are not always drawn.

Columns and labels:
[1] = system: L-687,414-induced hyperlocomotion; experiment: Reversal of L-687,414-induced hyperlocomotion (Digiscan locomotor activity); assay type: in vivo, mouse; conditions: for ID50 po: dose producing 50% inhibition of L-687,414-induced hyperlocomotion, p.o. 15 min before s.c. 50 mg/kg L-687,414, doses 1-3-10 (Expl. 2: 3-10-30) mg/kg; for inhibition in vivo at 30 mg/kg: Mus musculus, 0.5 h, dose ip 30 mg/kg at the same time as s.c. 50 mg/kg L-687,414, horizontal activity over 30 min
Text: The authors described that hyperlocomotion induced by L-687,414 was inhibited by a series of known antipsychotic drugs. […] These findings predict antipsychotic activity for the present compounds, making them useful for the treatment of positive (psychosis) and negative symptoms of schizophrenia, substance abuse, alcohol and drug addiction, obsessive-compulsive disorders, cognitive impairment, bipolar disorders, mood disorders, major depression, resistant depression, anxiety disorders, Alzheimer's disease, autism, Parkinson's disease, chronic pain, borderline personality disorder, sleep disturbances, chronic fatigue syndrome, stiffness, antiinflammatory effects in arthritis and balance problems.
The described compounds of formula I reduce L-687,414-induced hyperlocomotion. This was assessed by using a computerized Digiscan 16 Animal Activity Monitoring System (Omnitech Electronics, Columbus, Ohio) to quantify locomotor activity. Animals were kept under a 12 h light/dark cycle and experiments were performed during the light period. Each activity monitoring chamber consisted of a Plexiglas box (41×41×28 cm; W×L×H) with sawdust bedding on the floor surrounded by invisible horizontal and vertical infrared sensor beams. The test boxes were divided by a Plexiglas cross providing each mouse with 20×20 cm of moving space. Cages were connected to a Digiscan Analyzer linked to a computer that constantly collected the beam status information. Records of photocell beam interruptions for individual animals were taken every 5 min over the duration of the experimental session and the sum of the first 6 periods was used as the final parameter. Compounds were administered either p.o. 15 min before a s.c. injection of 50 mg/kg of L-687,414, or i.p. at the same time as a s.c. injection of 50 mg/kg of L-687,414. Mice were then transferred from their home cage to the recording chambers for a 15-min habituation phase allowing free exploration of the new environment. Horizontal activity was then recorded for a 30-min time period. The % inhibition of L-687,414-induced hyperlocomotion was calculated according to the equation: ((Veh+L-687,414 horizontal activity−drug+L-687,414 horizontal activity)/Veh+L−687,414 horizontal activity)×100
ID50 values, defined as doses of each compound producing 50% inhibition of L-687,414-induced hyperlocomotion, were calculated by linear regression analysis of a dose-response data using an Excel-based computer-fitting program.
As data was not presupposed to be normally distributed, groups treated with test compounds were statistically compared with the control (vehicle-treated) group using one-tailed Mann Whitney U tests. In statistics, the Mann-Whitney U test (also called the Mann-Whitney-Wilcoxon (MWW) or Wilcoxon rank-sum test) is a non-parametric statistical hypothesis test for assessing whether one of two samples of independent observations tends to have larger values than the other. It is one of the most well-known non-parametric significance tests. […] P values given in table 1 are one-tailed since only decreases in locomotion were expected and tested for (Mann, H. B., Whitney, D. R. (1947), “On a Test of Whether one of Two Random Variables is Stochastically Larger than the Other”, Annals of Mathematical Statistics, 18 (1), 50-60).

[2] = system: behaviors of compound-treated mice; experiment: SmartCube behavioral signature and similarity analysis to atypical antipsychotics; assay type: in vivo, mouse; conditions: 25 mg/kg i.p.; for SmartCube signature (class similarity): FIG. 1; for Similarity analysis: discrimination rate vs Clozapine / Similarity analysis: discrimination rate vs Olanzapine / Similarity analysis: discrimination rate vs Risperidone: rate of 0.70 or lower = similar, 0.5 = zero distinguishability
Text: In addition to the reversal of L-687,414 induced hyperlocomotion experiment as described above, some compounds of the present invention have been tested in SmartCube®, an automated system in which the behaviors of compound-treated mice in response to multiple challenges are captured by digital video and analyzed with computer algorithms (Roberds et al., Frontiers in Neuroscience, 2011, Vol. 5, Art. 103, 1-4). In this way, the neuro-pharmacological effects of a test compound can be predicted by similarity to major classes of compounds, such as antipsychotics, anxiolytics and antidepressants.
As mentioned above, some compounds have been tested in SmartCube®, an analytical system developed by PsychoGenics Inc.
SmartCube® was used to compare the behavioral signature of a test compound to a database of behavioral signatures obtained from a large set of clinically approved reference drugs, grouped per indications. In this way, the neuro-pharmacological effects of a test compound can be predicted by similarity to major classes of compounds, such as antipsychotics, anxiolytics and antidepressants. This approach is ideally suited to screen collections of existing drugs or drug candidates with previously unknown neuropharmacology, which could expedite the development of new and unexpected treatments for psychiatric disorders.
Some compounds of the present invention were injected i.p. at different doses 15 minutes before the test. At least 8 mice were used in each treatment group. Digital videos of the subjects were processed with computer vision algorithms to extract over 2000 dependent measures including frequency and duration of many different behavioral states. The results of the classifications are presented as bar charts for each compound and dose (mg/kg), the Y-axis indicates the relative probability that the test compound will show efficacy in the specific CNS indication.
Compounds of the present invention show similar signatures to those of atypical antipsychotics. An independent analysis was performed on the unclassified data to determine the similarity of the example compounds to active doses of known atypical antipsychotics. For this analysis, we use discrimination rate as the measure of separability between the two drugs, i.e. one drug's “distinguishability” from another. A rate equal to 50% (or 0.5) corresponds to zero distinguishability. […] In most cases, the example compounds show a similarity to risperidone, clozapine and olanzapine with a discrimination rate of ≤0.70.

Compound: Cc1cc(-c2ncc(-c3ccc4c(c3)NC(=O)C4(C)C)o2)ccn1 [Example 35, 3,3-Dimethyl-6-(2-(2-methylpyridin-4-yl)oxazol-5-yl)indolin-2-one]
- ID50 po [1]: 5.82 mg/kg
- SmartCube signature (class similarity) [2]: similarity to atypical antipsychotics
- Similarity analysis: discrimination rate vs Clozapine [2]: 0.69
- Similarity analysis: discrimination rate vs Olanzapine [2]: 0.75
- Similarity analysis: discrimination rate vs Risperidone [2]: 0.60

Compound: CC1(C)C(=O)Nc2cc(-n3cnc(-c4ccncc4)c3)ccc21 [Example 47, 3,3-Dimethyl-6-(4-(pyridin-4-yl)-1H-imidazol-1-yl)indolin-2-one]
- SmartCube signature (class similarity) [2]: similarity to atypical antipsychotics
- Similarity analysis: discrimination rate vs Clozapine [2]: 0.70
- Similarity analysis: discrimination rate vs Olanzapine [2]: 0.68
- Similarity analysis: discrimination rate vs Risperidone [2]: 0.64

Compound: Cc1cc(-n2cnc(-c3ccc4c(c3)N(C)C(=O)C4(C)C)c2)ccn1 [Example 62, 1,3,3-Trimethyl-6-(1-(2-methylpyridin-4-yl)-1H-imidazol-4-yl)indolin-2-one]
- ID50 po [1]: 8.8 mg/kg
- SmartCube signature (class similarity) [2]: similarity to atypical antipsychotics
- Similarity analysis: discrimination rate vs Clozapine [2]: 0.59
- Similarity analysis: discrimination rate vs Olanzapine [2]: 0.62
- Similarity analysis: discrimination rate vs Risperidone [2]: 0.58

Compound: CC1(C)C(=O)Nc2cc(-c3cn(-c4cccnc4)cn3)ccc21 [Example 93, 3,3-Dimethyl-6-(1-(pyridin-3-yl)-1H-imidazol-4-yl)indolin-2-one]
- SmartCube signature (class similarity) [2]: similarity to atypical antipsychotics
- Similarity analysis: discrimination rate vs Clozapine [2]: 0.63
- Similarity analysis: discrimination rate vs Olanzapine [2]: 0.68
- Similarity analysis: discrimination rate vs Risperidone [2]: 0.60

Compound: Cc1ccc(-c2ncc(-c3ccc4c(c3)N(C)C(=O)C4(C)C)cn2)cn1 [Example 101, 1,3,3-Trimethyl-6-(2-(6-methylpyridin-3-yl)pyrimidin-5-yl)indolin-2-one]
- inhibition in vivo at 30 mg/kg [1]: 78.4%

Compound: Cc1ccc(N2C(=O)C(C)(C)c3ccc(-c4cn(-c5ccncc5F)cn4)cc32)cn1 [Example 102, 6-[1-(3-Fluoro-4-pyridyl)imidazol-4-yl]-3,3-dimethyl-1-(6-methyl-3-pyridyl)indolin-2-one]
- inhibition in vivo at 30 mg/kg [1]: 65.6%

Compound: Cc1ccc(N2C(=O)C(C)(C)c3ccc(-c4cn(-c5ccnc(C)c5)cn4)cc32)cn1 [Example 104, 3,3-Dimethyl-1-(6-methyl-3-pyridyl)-6-[1-(2-methyl-4-pyridyl)imidazol-4-yl]indolin-2-one]
- inhibition in vivo at 30 mg/kg [1]: 64.8%

Compound: Cc1ccc(N2C(=O)C(C)(C)c3ccc(-c4cn(-c5ccncc5C)cn4)cc32)cn1 [Example 105, 3,3-Dimethyl-1-(6-methyl-3-pyridyl)-6-[1-(3-methyl-4-pyridyl)imidazol-4-yl]indolin-2-one]
- inhibition in vivo at 30 mg/kg [1]: 40.6%

Compound: Cc1cc(N2C(=O)C(C)(C)c3ccc(-c4cn(-c5ccncc5C)cn4)cc32)ccn1 [Example 106, 3,3-Dimethyl-1-(2-methyl-4-pyridyl)-6-[1-(3-methyl-4-pyridyl)imidazol-4-yl]indolin-2-one]
- inhibition in vivo at 30 mg/kg [1]: 68.4%

Compound: Cc1cc(-n2cnc(-c3ccc4c(c3)N(c3cn(C)cn3)C(=O)C4(C)C)c2)ccn1 [Example 111, 3,3-Dimethyl-1-(1-methylimidazol-4-yl)-6-[1-(2-methyl-4-pyridyl)imidazol-4-yl]indolin-2-one]
- inhibition in vivo at 30 mg/kg [1]: 55.1%

Compound: Cc1cc(-n2cnc(-c3ccc4c(c3)N(c3ccn(C)n3)C(=O)C4(C)C)c2)ccn1 [Example 112, 3,3-Dimethyl-1-(1-methylpyrazol-3-yl)-6-[1-(2-methyl-4-pyridyl)imidazol-4-yl]indolin-2-one]
- inhibition in vivo at 30 mg/kg [1]: 52.5%

Compound: Cc1cnccc1-n1cnc(-c2ccc3c(c2)N(c2cn(C)cn2)C(=O)C3(C)C)c1 [Example 114, 3,3-Dimethyl-1-(1-methylimidazol-4-yl)-6-[1-(3-methyl-4-pyridyl)imidazol-4-yl]indolin-2-one]
- inhibition in vivo at 30 mg/kg [1]: 64.9%

Compound: Cc1cnccc1-n1cnc(-c2ccc3c(c2)N(c2ccn(C)n2)C(=O)C3(C)C)c1 [Example 115, 3,3-Dimethyl-1-(1-methylpyrazol-3-yl)-6-[1-(3-methyl-4-pyridyl)imidazol-4-yl]indolin-2-one]
- inhibition in vivo at 30 mg/kg [1]: 74.1%

Compound: Cc1ncc(N2C(=O)C(C)(C)c3ccc(-c4cn(-c5ccncc5C)cn4)cc32)cn1 [Example 116, 3,3-Dimethyl-6-[1-(3-methyl-4-pyridyl)imidazol-4-yl]-1-(2-methylpyrimidin-5-yl)indolin-2-one]
- inhibition in vivo at 30 mg/kg [1]: 74.3%

Compound: Cc1cnc(-n2cnc(-c3ccc4c(c3)N(C3CC3)C(=O)C4(C)C)c2)nc1 [Example 118, 1-Cyclopropyl-3,3-dimethyl-6-(1-(5-methylpyrimidin-2-yl)-1H-imidazol-4-yl)indolin-2-one]
- inhibition in vivo at 30 mg/kg [1]: 50.3%

Compound: Cc1cnc(-n2cnc(-c3ccc4c(c3)N(C)C(=O)C4(C)C)c2)nc1 [Example 119, 1,3,3-Trimethyl-6-(1-(5-methylpyrimidin-2-yl)-1H-imidazol-4-yl)indolin-2-one]
- inhibition in vivo at 30 mg/kg [1]: 48.1%

Compound: Cc1cccc(-n2cnc(-c3ccc4c(c3)NC(=O)C4(C)C)c2)n1 [Example 123, 3,3-Dimethyl-6-(1-(6-methylpyridin-2-yl)-1H-imidazol-4-yl)indolin-2-one]
- inhibition in vivo at 30 mg/kg [1]: 30.6%

Compound: CC1(C)C(=O)N(CCO)c2cc(-c3cn(-c4ccncc4F)cn3)ccc21 [Example 130, 6-[1-(3-Fluoro-4-pyridyl)imidazol-4-yl]-1-(2-hydroxyethyl)-3,3-dimethyl-indolin-2-one]
- inhibition in vivo at 30 mg/kg [1]: 74.5%

Compound: Cc1cc(-n2cnc(-c3ccc4c(c3)NC(=O)C4(C)C)c2)c(F)cn1 [Example 132, 6-[1-(5-Fluoro-2-methyl-4-pyridyl)imidazol-4-yl]-3,3-dimethyl-indolin-2-one trifluoroacetate]
- inhibition in vivo at 30 mg/kg [1]: 71.1%
